Source: ChEMBL document CHEMBL1139221, “2-(4-Chlorobenzyl)-3-hydroxy-7,8,9,10-tetrahydrobenzo[H]quinoline-4-carboxylic acid (PSI-697): identification of a clinical candidate from the quinoline salicylic acid series of P-selectin antagonists” (J Med Chem, 2007)
The source made the active and inactive calls. The rule behind the calls is not given here.

Experiments:
[1] = target: T1, P-selectin (Homo sapiens) (UniProt P16109); assay: (§1) Inhibition of P-Selectin by Biacore assay
T1 sequence (whole entry): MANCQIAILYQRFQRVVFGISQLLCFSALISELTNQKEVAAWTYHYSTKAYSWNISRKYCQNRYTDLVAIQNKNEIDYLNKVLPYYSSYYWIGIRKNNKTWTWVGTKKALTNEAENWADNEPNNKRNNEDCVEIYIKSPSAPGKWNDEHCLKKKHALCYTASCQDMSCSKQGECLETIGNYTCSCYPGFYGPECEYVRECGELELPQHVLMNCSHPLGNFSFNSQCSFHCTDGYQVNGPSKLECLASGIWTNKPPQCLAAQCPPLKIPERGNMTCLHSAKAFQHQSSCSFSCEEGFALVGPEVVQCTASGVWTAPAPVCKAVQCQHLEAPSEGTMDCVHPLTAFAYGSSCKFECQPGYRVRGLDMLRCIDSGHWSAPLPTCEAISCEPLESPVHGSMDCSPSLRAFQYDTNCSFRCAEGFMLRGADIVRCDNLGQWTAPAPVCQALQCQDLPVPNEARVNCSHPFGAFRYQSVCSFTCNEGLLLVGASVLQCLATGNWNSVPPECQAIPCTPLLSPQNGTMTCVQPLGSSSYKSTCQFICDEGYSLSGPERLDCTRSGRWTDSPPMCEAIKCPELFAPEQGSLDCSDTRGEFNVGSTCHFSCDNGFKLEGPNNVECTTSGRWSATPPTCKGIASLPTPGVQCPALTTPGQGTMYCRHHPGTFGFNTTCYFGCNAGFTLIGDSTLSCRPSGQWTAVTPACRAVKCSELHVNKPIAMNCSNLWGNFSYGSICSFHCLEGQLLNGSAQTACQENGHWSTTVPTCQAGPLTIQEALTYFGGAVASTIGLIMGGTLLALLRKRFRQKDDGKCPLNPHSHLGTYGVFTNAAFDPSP

P-selectin = target: T2, P-selectin (Homo sapiens, UniProt P16109); assay: as §1
T2 sequence (P16109 whole entry): T1 sequence (whole entry)

[2] = target: T1, P-selectin (Homo sapiens); assay: Inhibition of P-Selectin by Biacore assay at 500 uM
[3] = target: T1, P-selectin (Homo sapiens); assay: Inhibition of P-Selectin by Biacore assay at 250 uM

Cc1ccc2nc(Cc3c[nH]c4ccccc34)c(O)c(C(=O)O)c2c1
Activity [1]: inactive

O=C(O)c1c(O)c(-c2c[nH]c3ccccc23)nc2c3c(ccc12)CCCC3
IC50 (P-selectin): 225 µM

CC(C)COC(=O)Oc1c(Cc2ccc(Cl)cc2)nc2c3c(ccc2c1C(=O)O)CCCC3
IC50 (P-selectin): 250 µM

O=C(O)c1c(O)c(Cc2ccc(Cl)c(Cl)c2)nc2c3c(ccc12)CCCC3
inhibition [2]: 36%

O=C(O)c1c(O)c(Cc2c[nH]c3ccccc23)nc2c(OC(F)(F)F)cccc12
inhibition [2]: 18%

O=C(O)c1c(O)c(Cc2ccc(Cl)cc2)nc2c3c(ccc12)CCN(Cc1ccccc1)C3
Activity [1]: inactive

O=C(O)c1c(O)c(Cc2ccc(OC(F)(F)F)cc2)nc2c3c(ccc12)CCCC3
IC50 (P-selectin): 610 µM

NC(=O)N1CCc2ccc3c(C(=O)O)c(O)c(Cc4ccc(Cl)cc4)nc3c2C1
Activity [1]: inactive

O=C(O)c1c(O)c(Cc2ccc(Cl)cc2)nc2c(C(F)(F)F)cccc12
IC50 (P-selectin): 325 µM

CC(=O)n1cc(Cc2nc3c4c(ccc3c(C(=O)O)c2O)CCCC4)c2ccccc21
inhibition [2]: 34%

O=C(O)c1c(O)c(Cc2ccc(Cl)cc2)nc2c3c(ccc12)CCC3
IC50 (P-selectin): 580 µM

CC(=O)Oc1c(Cc2ccc(Cl)cc2)nc2c3c(ccc2c1C(=O)O)CCCC3
IC50 (P-selectin): 545 µM

O=C(Oc1c(Cc2ccc(Cl)cc2)nc2c3c(ccc2c1C(=O)O)CCCC3)c1cccs1
IC50 (P-selectin): 175 µM

CC(C)N1CCc2ccc3c(C(=O)O)c(O)c(Cc4ccc(Cl)cc4)nc3c2C1
Activity [1]: inactive

O=C(O)c1c(O)c(Cc2ccc(Cl)cc2)nc2c(C(=O)O)cccc12
inhibition [2]: 8%

O=C(O)c1c(O)c(Cc2c[nH]c3ccccc23)nc2c(-c3ccsc3)cccc12
IC50 (P-selectin): 380 µM

CCN1CCc2ccc3c(C(=O)O)c(O)c(Cc4ccc(Cl)cc4)nc3c2C1
Activity [1]: inactive

O=C(O)c1c(O)c(Cc2ccsc2)nc2c3c(ccc12)CCCC3
IC50 (P-selectin): 475 µM

O=C(O)c1c(O)c(Cc2ccc(Cl)cc2)nc2c(F)cccc12
inhibition [2]: 12%

O=C(O)c1c(O)c(Cc2c[nH]c3ccccc23)nc2ccccc12
Activity [1]: inactive

CCc1ccc2c(C(=O)O)c(O)c(Cc3c[nH]c4ccccc34)nc2c1
Activity [1]: inactive

NC(=O)c1ccc(Cc2nc3c4c(ccc3c(C(=O)O)c2O)CCCC4)cc1
IC50 (P-selectin): 1250 µM

O=C(O)c1c(O)c(Cc2ccccc2)nc2c3c(ccc12)CCCC3
IC50 (P-selectin): 413 µM

O=C(O)c1c(OCc2ccccc2)c(Cc2ccc(Cl)cc2)nc2c3c(ccc12)CCCC3
IC50 (P-selectin): 390 µM

CC(C)c1cccc2c(C(=O)O)c(O)c(Cc3c[nH]c4ccccc34)nc12
IC50 (P-selectin): 415 µM

O=C(O)c1c(O)c(CCc2ccccc2)nc2c3c(ccc12)CCCC3
IC50 (P-selectin): 450 µM

O=C(O)c1c(O)c(Cc2c[nH]c3ccccc23)nc2ccc(OC(F)(F)F)cc12
Activity [1]: inactive

Cc1ccc(-c2nc3c4c(ccc3c(C(=O)O)c2O)CCCC4)s1
IC50 (P-selectin): 200 µM

CC(C)(C)c1cccc2c(C(=O)O)c(O)c(Cc3ccc(Cl)cc3)nc12
inhibition [2]: 12%

O=C(O)c1c(O)c(Cc2ccc(Cl)cc2)nc2c(-c3ccsc3)cccc12
IC50 (P-selectin): 225 µM

Cc1ccc2c(C(=O)O)c(O)c(Cc3ccc(Cl)cc3)nc2c1
inhibition [2]: 12%

CC(C)OC(=O)n1cc(Cc2nc3c4c(ccc3c(C(=O)O)c2O)CCCC4)c2ccccc21
Activity [1]: inactive

O=C(O)c1c(O)c(Cc2ccc(Cl)cc2)nc2c(OC(F)(F)F)cccc12
IC50 (P-selectin): 550 µM

CCc1ccc2c(C(=O)O)c(O)c(Cc3ccc(Cl)cc3)nc2c1
inhibition [2]: 19%

Cc1[nH]c2ccccc2c1Cc1nc2c3c(ccc2c(C(=O)O)c1O)CCCC3
IC50 (P-selectin): 270 µM

O=C(O)c1c(O)c(Cc2ccc(Cl)cc2)nc2c3c(ccc12)CCN(C(=O)c1ccccc1)C3
Activity [1]: inactive

O=C(O)c1c(O)c(Cc2ccc(Cl)cc2)nc2c(Br)cccc12
IC50 (P-selectin): 425 µM

O=C(O)c1c(O)c(Cc2c[nH]c3ccccc23)nc2cc(Br)ccc12
Activity [1]: inactive

Cc1cccc2c(C(=O)O)c(O)c(Cc3c[nH]c4ccccc34)nc12
inhibition [2]: 11%

O=C(O)c1c(O)c(Cc2c[nH]c3ccccc23)nc2ccc(F)cc12
Activity [1]: inactive

Cc1cccc2c(C(=O)O)c(O)c(Cc3ccc(Cl)cc3)nc12
IC50 (P-selectin): 1000 µM

O=C(O)c1c(O)c(Cc2coc3ccccc23)nc2c3c(ccc12)CCCC3
IC50 (P-selectin): 225 µM

Cc1ccc2c(C(=O)O)c(O)c(-c3ccccc3)nc2c1C
IC50 (P-selectin): 1500 µM

Cc1c(Cc2nc3c4c(ccc3c(C(=O)O)c2O)CCCC4)sc2ccccc12
inhibition [2]: 22%

CC(=O)N1CCc2ccc3c(C(=O)O)c(O)c(Cc4ccc(Cl)cc4)nc3c2C1
Activity [1]: inactive

CC(C)C(=O)Oc1c(Cc2ccc(Cl)cc2)nc2c3c(ccc2c1C(=O)O)CCCC3
inhibition [3]: 13%

O=C(O)c1c(O)c(-c2ccccc2)nc2ccccc12 [OXYCINCHOPHEN]
IC50 (P-selectin): 6500 µM

CCOC(=O)N1CCc2ccc3c(C(=O)O)c(O)c(Cc4ccc(Cl)cc4)nc3c2C1
Activity [1]: inactive

O=C(O)c1c(O)c(Cc2ccc(Cl)cc2)nc2c(-c3ccccc3)cccc12
IC50 (P-selectin): 200 µM

CC(C)c1cccc2c(C(=O)O)c(O)c(Cc3ccc(Cl)cc3)nc12
IC50 (P-selectin): 225 µM

O=C(O)c1c(O)c(Nc2ccc(Cl)cc2)nc2c(C(F)(F)F)cccc12
IC50 (P-selectin): 125 µM

O=C(O)c1c(O)c(Cc2cccs2)nc2c3c(ccc12)CCCC3
IC50 (P-selectin): 413 µM

O=C(O)c1c(O)c(Cc2c[nH]c3ccccc23)nc2c(Br)cccc12
inhibition [2]: 15%

O=C(Nc1c(Cc2ccc(Cl)cc2)nc2c3c(ccc2c1C(=O)O)CCCC3)c1ccccc1
inhibition [3]: 19%

O=C(O)c1c(O)c(Cc2csc3ccc(Cl)cc23)nc2c3c(ccc12)CCCC3
Activity [1]: inactive

O=C(OCc1ccccc1)c1c(OCc2ccccc2)c(Cc2ccc(Cl)cc2)nc2c3c(ccc12)CCCC3
Activity [1]: inactive

CC(=O)Nc1c(Cc2ccc(Cl)cc2)nc2c3c(ccc2c1C(=O)O)CCCC3
inhibition [3]: 10%

CC(C)S(=O)(=O)N1CCc2ccc3c(C(=O)O)c(O)c(Cc4ccc(Cl)cc4)nc3c2C1
IC50 (P-selectin): 500 µM

CCc1cccc2c(C(=O)O)c(O)c(Cc3ccc(Cl)cc3)nc12
IC50 (P-selectin): 250 µM

O=C(O)c1c(O)c(Cc2c[nH]c3ccccc23)nc2c(F)cccc12
Activity [1]: inactive

Cc1ccc2c(C(=O)O)c(O)c(Cc3c[nH]c4ccccc34)nc2c1
Activity [1]: inactive

COc1ccc(-c2ccccc2)c2nc(Cc3ccc(Cl)cc3)c(O)c(C(=O)O)c12
Activity [1]: inactive

O=C(O)c1c(O)c(Cc2c[nH]c3ccccc23)nc2c(Cl)cccc12
Activity [1]: inactive

O=C(O)c1c(Cc2ccc(Cl)cc2)nc2c3c(ccc2c1O)CCCC3
Activity [1]: inactive

O=C(O)c1c(O)c(Cc2c[nH]c3ccc(Br)cc23)nc2c3c(ccc12)CCCC3
IC50 (P-selectin): 175 µM

O=C(O)c1c(O)c(Cc2ccc(Cl)cc2)nc2ccccc12
Activity [1]: inactive

CCC(C)c1cccc2c(C(=O)O)c(O)c(Cc3ccc(Cl)cc3)nc12 (centres undefined)
IC50 (P-selectin): 300 µM

O=C(O)c1c(O)c(Cc2c[nH]c3ccccc23)nc2c(C(F)(F)F)cccc12
inhibition [2]: 15%

O=C(O)c1c(O)c(Cc2csc3ccccc23)nc2c3c(ccc12)CCCC3
IC50 (P-selectin): 100 µM

Cc1ccc2[nH]cc(Cc3nc4c5c(ccc4c(C(=O)O)c3O)CCCC5)c2c1
IC50 (P-selectin): 200 µM

O=C(Oc1c(Cc2ccc(Cl)cc2)nc2c3c(ccc2c1C(=O)O)CCCC3)c1ccccc1
IC50 (P-selectin): 190 µM

O=C(O)c1c(O)c(Cc2ccc(Cl)cc2)nc2cc(Cl)ccc12
IC50 (P-selectin): 900 µM

O=C(O)c1c(O)c(Cc2ccc(Cl)cc2)nc2ccc(-c3ccccc3)cc12
inhibition [2]: 38%

O=C(O)c1c(O)c(Cc2cn(C(=O)Cc3ccccc3)c3ccccc23)nc2c3c(ccc12)CCCC3
Activity [1]: inactive

COc1ccc2[nH]cc(Cc3nc4c5c(ccc4c(C(=O)O)c3O)CCCC5)c2c1
IC50 (P-selectin): 400 µM

N#Cc1ccc(Cc2nc3c4c(ccc3c(C(=O)O)c2O)CCCC4)cc1
IC50 (P-selectin): 500 µM

O=C(O)c1c(O)c(Cc2ccc(Cl)cc2)nc2c3c(ccc12)CCNC3
Activity [1]: inactive

O=C(O)c1c(O)c(-c2ccccc2)nc2c3c(ccc12)CCCC3
IC50 (P-selectin): 550 µM

CS(=O)(=O)N1CCc2ccc3c(C(=O)O)c(O)c(Cc4ccc(Cl)cc4)nc3c2C1
IC50 (P-selectin): 625 µM

O=C(O)c1c(O)c(Cc2ccc(Cl)cc2)nc2c(-c3ccoc3)cccc12
IC50 (P-selectin): 150 µM

COC(=O)Oc1c(Cc2ccc(Cl)cc2)nc2c3c(ccc2c1C(=O)O)CCCC3
IC50 (P-selectin): 400 µM

O=C(O)c1c(OC(=O)C2CCCCC2)c(Cc2ccc(Cl)cc2)nc2c3c(ccc12)CCCC3
IC50 (P-selectin): 175 µM

O=C(O)c1c(O)c(Cc2ccc(Cl)cc2)nc2c(Cl)cccc12
IC50 (P-selectin): 715 µM

O=C(O)c1c(O)c(Cc2ccc(Cl)cc2)nc2ccc(Br)cc12
IC50 (P-selectin): 650 µM

CCc1cccc2c(C(=O)O)c(O)c(Cc3c[nH]c4ccccc34)nc12
inhibition [2]: 19%

Nc1c(Cc2ccc(Cl)cc2)nc2c3c(ccc2c1C(=O)O)CCCC3
inhibition [3]: 15%

O=C(O)c1ccc(Cc2nc3c4c(ccc3c(C(=O)O)c2O)CCCC4)cc1
inhibition [2]: 10%

COc1c(Cc2ccc(Cl)cc2)nc2c3c(ccc2c1C(=O)O)CCCC3
inhibition [3]: 20%

O=C(O)c1c(O)c(Cc2c[nH]c3ccccc23)nc2ccc(Br)cc12
Activity [1]: inactive
